Converted amounts (≈) assume the structure as drawn. “Also recorded” adds a separate entry of the source.
How the values were obtained:
[1] = target: B. anthracis sortase A enzyme (Bacillus anthracis, UniProt P0DPQ5); experiment: cell-based; settings: for EC50 (estimated from a single concentration): read-out: EC50 estimated from a single concentration
S. aureus strain Newman = experiment: MIC by microtiter broth dilution method; type: cell-based; settings: Staphylococcus aureus, read-out: MIC preventing S. aureus growth
S. aureus = S. aureus culture growth in the presence of 500 μM inhibitor; type: cell-based, Staphylococcus aureus; settings: vs 2.5% DMSO control
SrtA = SrtA (Staphylococcus aureus, UniProt Q2FV99); type: biochemical; settings: inhibitor 10-fold above IC50, then rapid dilution
[2] = target: Bacillus anthracis sortase enzyme (BaSrtA) (Bacillus anthracis, UniProt P0DPQ5); experiment: biochemical
S. aureus SrtA = S. aureus SrtA (Staphylococcus aureus, UniProt Q2FV99); experiment: FRET assay of SrtA-catalyzed hydrolysis of Abz-LPETG-Dap(Dnp); IC50 / Ki app; type: biochemical; settings: for IC50: purified enzyme, FRET, read-out: IC50 for inhibition of S. aureus SrtA; for Ki: read-out: Ki app (apparent dissociation constant of enzyme-inhibitor complex, Morrison's equation), S. aureus SrtA
[3] = test system: SrtA activity in whole cells, S. aureus strain RN4220; experiment: Cell adhesion assay: whole cell adhesion to IgG coated plates (SrtA activity in whole cells); type: cell-based, Staphylococcus aureus; settings: IgG coated microtiter plates

Chain of B. anthracis sortase A enzyme (P0DPQ5 whole entry, looked up): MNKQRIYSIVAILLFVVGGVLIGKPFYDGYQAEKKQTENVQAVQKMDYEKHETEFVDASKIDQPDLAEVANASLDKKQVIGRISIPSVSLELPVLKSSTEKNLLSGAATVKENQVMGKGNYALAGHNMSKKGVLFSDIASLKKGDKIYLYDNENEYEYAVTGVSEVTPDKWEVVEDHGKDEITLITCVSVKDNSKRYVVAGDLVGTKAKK
Chain of S. aureus SrtA (Q2FV99 60-206): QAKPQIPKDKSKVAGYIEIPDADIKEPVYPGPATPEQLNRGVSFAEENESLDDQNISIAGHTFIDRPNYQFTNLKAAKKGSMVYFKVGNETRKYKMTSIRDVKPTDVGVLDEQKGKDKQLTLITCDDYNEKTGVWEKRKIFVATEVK
Chain of Bacillus anthracis sortase enzyme (BaSrtA) (P0DPQ5 whole entry, looked up): as the sequence (P0DPQ5 whole entry, looked up) above
Chain of SrtA (Q2FV99 60-206): as the sequence (Q2FV99 60-206) above

Row | Compound | EC50 (estimated from a single concentration) [1] [µM] | Effect on S. aureus growth in cell culture, in words (S. aureus) | Ki [2] [µM] | IC50 (S. aureus SrtA) [µM] | Ki (S. aureus SrtA) [µM] | also measured
1 | CCOc1c(SSc2ccccn2)cnn(-c2cccc(F)c2)c1=O [2-59, 4-Ethoxy-2-(3-fluorophenyl)-5-(pyridin-2-yldisulfanyl)pyridazin-3(2H)-one] | > 8 |  |  |  |  | 
2 | Cc1ccc(N2C(=O)/C(=C/c3cc([N+](=O)[O-])cc(Br)c3O)SC2=S)c(C)c1 [compound 1] |  | toxic |  |  |  | MIC (S. aureus strain Newman): ~10 µM (≈ 4.65 µg/mL); Enzyme activity recovered immediately after dilution (SrtA): 84%
3 | CCSc1c(S)cnn(-c2ccccc2)c1=O [compound 2-9] |  | do not significantly inhibit S. aureus growth; also recorded: not bactericidal; also recorded: do not impair microbial growth in cell culture | ~0.3 | 1.4 | 1.4 | Inhibition of S. aureus SrtA, potency in words (S. aureus SrtA): low micromolar
4 | CCOc1c(SSc2ccccn2)cnn(-c2ccccc2)c1=O [compound 2-50, 4-Ethoxy-5-(2-pyridyldithio)-2-phenylpyridazin-3-one] | > 8 |  |  |  | ~0.03 | Concentration giving near complete inhibition of sortase activity [1]: about 34 μM; EC50 [1]: ~15 µM
5 | CC1=NN(c2ccccc2)C(=S)/C1=C/Nc1c(Br)cc(Br)cc1Br [compound 3-12] | > 28 | do not substantially affect bacterial growth; also recorded: do not impair microbial growth in cell culture | 1.7 | 0.3 | 0.3 | Improvement of potency relative to lead 3 (S. aureus SrtA; 4-NO2 changed to 2,4,6-Br3): about 15 fold
6 | Cc1oc(CN)nc1C(=O)c1nccs1 [compound 4] |  |  |  | 7.2 |  | Effect on SrtA-dependent adherence / protein display in whole cells [3]: potent effects; also recorded: inhibits protein display by SrtA in vivo
